Measured values taken from US9034596B1, “Method for fluorescent staining of cellular and intracellular membranes” (KUWAIT UNIVERSITY, priority 2014, dated 2015).

Assays:
[1] = storage stability of sterilized probe; details: refrigerated in the dark
LS174T cells = assay: fluorescent staining of cellular and intracellular membranes, confocal microscopy; assay type: cell-based
Description: Monolayer cultures were grown in RPMI 1640 medium (Gibco) supplemented with 10% fetal bovine serum (FBS) (Gibco), 1% L-glutamine (Gibco), 1% penicillin/streptomycin (Gibco) as an antibacterial agent and 0.1% amphotericin (Sigma) as an antifungal agent. The cultures were maintained at 37° C. in a CO2 incubator with humidified atmosphere, 5% CO2 and 95% air. Confluent cultures (80-90%) were used for experiments. The cells were then detached by trypsinization and incubation at 37° C. for 2-3 minutes. Fresh medium (10× to trypsin's volume) was added to inhibit trypsin action. The cell suspension was centrifuged at 500 g for three minutes. The supernatant was discarded and the pellet obtained was resuspended in fresh medium. Cells were counted and seeded onto sterile glass cover slips at 5×10^4 cells per slip and incubated overnight to adhere. ZnTnHex-4-PyPCl4 was added and the cells were incubated with the compound in the dark. The cells were then fixed with ice cold absolute ethanol added to a final concentration of 60%, and the plate containing the slips was kept on ice for 10 minutes. The cells were washed with PBS twice and the slips were transferred onto microscopic slides. Vectashield mounting medium from Vector Laboratories was used. The slides were examined using a Zeiss LSM 510 META confocal fluorescence microscope fitted with standard FITC, Rhodamine and DAPI filter sets.
LS174T cells were counted and seeded onto sterile glass cover slips at 5×10^4 cells per slip and incubated over-night to adhere. The dye was added to a final concentration of 0.5-2.5 μM and the cells were incubated with ZnTnHex-4-PyPCl4 in the dark for 15-30 minutes. The cells were then fixed with ice cold absolute ethanol added to a final concentration of 60%, and the plate containing the slips was kept on ice for 10 minutes. The cells were washed with PBS twice and the slips were transferred onto microscopic slides. […] The slides were examined using a Zeiss LSM 510 META confocal fluorescence microscope fitted with standard FITC, Rhodamine and DAPI filter sets.

cells = assay: harm to cells incubated with the fluorescent probe; details: 20 μM, shielded from light

Structure (SMILES): CCCCCC[n+]1ccc(C2=C3C=CC4=[N+]3[Zn]35[n]6c2ccc6C(c2cc[n+](CCCCCC)cc2)=C2C=CC(=[N+]23)C(c2cc[n+](CCCCCC)cc2)=c2ccc([n]25)=C4c2cc[n+](CCCCCC)cc2)cc1 [ZnTnHex-4-PyPCl4, Zn(II) meso-tetrakis(N-n-hexylpyridinium-4-yl)porphyrin tetrachloride]
- storage stability [1]: kept for months
- subcellular localization (LS174T cells; LSI74T cells, 20 μM, 24 hours pre-incubation in the dark, FIG. 2): mitochondria, lysosomes, the ER and the plasma membrane
- time to stain cellular and intracellular membranes (LS174T cells; concentrations as low as about 0.5-2.5 μM): ≤ 15 min
- concentration needed for staining membranes (LS174T cells; living mammalian cells): 0.5 to 1 µM
- harm to cells (cells): without harming cells
- solubility in water (solubility): water soluble
